Source: US20230357320A1, “HELICAL STAPLED PEPTIDES AND USES THEREOF” (FOG PHARMACEUTICALS, INC., priority 2020, published 2023)
Converted amounts (≈) assume the structure as drawn. Starred links: 1 amine or outer side, 2 acyl side, 3 side chain; linkers in the order of their positions; H or OH if unused. Positions of bridges follow the written chain, without caps; N, C: chain ends. Non-standard residues stand in square brackets, D forms with d. Residues, ends and D or L forms follow the SMILES beside them. X1 = O=C([C@]1(CC=[*:3])CCCN1[*:1])[*:2]; S5 = C=CCCC[C@](C)(N)C(=O)O

Tests used:
in vitro = experiment: in vitro; parameters: dose or concentration left out as unconfirmed; conditions: PAMPA, pH 7.4, PAMPA Pe
physchem = conditions: pH 7.4
[1] = CHI Log D measurement (chromatographic hydrophobicity index); conditions: reverse-phase HPLC, Phenomenex Gemini C-18 column, pH 7.4
ERβ LBD = target: T1, ERβ LBD (Homo sapiens, UniProt Q92731); experiment: Competition fluorescence polarization (FP) binding assay with FITC-ERL4 probe; conditions: binding towards the ERβ LBD; read-out: EC50
T1 construct: pET28a+ vector containing ERβ LBD (residues from 261 to 500) along with an N-terminal His6-yBBr-TEV tag; His6 (N); yBBr (N); TEV cleavage site (N); made in house; host or cells: E. coli BL21(DE3) pLysS
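Throughout, for % Retention: Phospholipid-membrane PAMPA, donor and acceptor in DPBS pH 7.4 with 5% DMSO, 37 °C for 5 h, compound in each well quantified by reverse-phase HPLC-MS.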
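Throughout, for PAMPA Pe: Phospholipid-membrane PAMPA, donor and acceptor in DPBS pH 7.4 with 5% DMSO, 37 °C for 5 h, compound in each well quantified by reverse-phase HPLC-MS.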
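Throughout, for Papp: Phospholipid-membrane PAMPA, donor and acceptor in DPBS pH 7.4 with 5% DMSO, 37 °C for 5 h, compound in each well quantified by reverse-phase HPLC-MS.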

SMILES: CNC(=O)[C@H](Cc1ccc(O)cc1)NC(=O)[C@@H](NC(=O)[C@H](CC(C)C)NC(=O)[C@H](CC(C)C)NC(=O)[C@H](CC(N)=O)NC(=O)[C@]1(C)CCCC=CC[C@]2(CCCN2C(C)=O)C(=O)N[C@@H](CCCCN)C(=O)N[C@@H](CC(C)C)C(=O)N1)[C@@H](C)O [PLL4-5, Ac-PL3-Lys-Leu-S5-Asn-Leu-Leu-Thr-Tyr-NHMe] (Ac-[X1]KL[S5]NLLTY-NHMe; staple 1-4)
- Papp at 5 h (in vitro): 0.7 ± 0.2 ×10⁻⁶ cm/s
- PAMPA Pe: 0.7 ± 0.2 (×10^−6) cm/sec
- % Retention (PAMPA): 74 ± 3%
- solubility (physchem): 880 µM (≈ 1030 µg/mL)
- chromatographic logD [1]: 1.8
- EC50 (ERβ LBD): 3 µM
